Data published in patent US8697747B2, “Enhancing coagulation or reducing fibrinolysis” (THe UAB Research Foundation, priority 2009, dated 2014).

Test system: pooled normal plasma
Assay: Dilution-response thrombelastography in plasma diluted with NS or VOL (no tPA)
Format: biochemical, human
From the text: Plasma and volume expanders. Pooled normal plasma (George King Bio-Medical, Overland Park, Kans.) anticoagulated with sodium citrate was utilized for experimentation. […] The volume expanders tested were 0.9% NaCl (Abbott Laboratories, North Chicago, Ill.; also designated as NS) and 6% hydroxylethyl starch (HES) in 0.9% NaCl (VOLUVEN®, average molecular weight 130 kDa, 0.4 degree of substitution, C2:C6 ratio of substitution 11.2; Fresenius Kabi, Bad Homburg, Germany; also referred to as VOL).
Plasma sample composition of dilution-response experiments. The final volume for all subsequently described plasma sample mixtures was 359.6 μL. Sample composition consisted of 326 μL of plasma/volume expander, 10 μL of tissue factor reagent (0.1% final concentration in dH2O; Instrumentation Laboratory, Lexington, Mass.), 3.6 μL of dimethyl sulfoxide (DMSO) or DMSO with CORM-2 (100 μM final concentration; Sigma-Aldrich, St. Louis, Mo.), and 20 μL of 200 mM CaCl2. Tissue factor stock was kept on ice prior to use and was remade every two hours. […] DMSO was added to dry CORM-2 just prior to placement into the plasma mixture. Plasma was diluted 0%, 20%, 30%, 40% or 50% with NS or VOL (n=4 per condition).
Clot Lifespan Model (CLSM) Analyses. Plasma sample mixtures were placed in a disposable cup in a computer-controlled THROMBELASTOGRAPH® hemostasis system (Model 5000, Haemoscope Corp., Niles, Ill.), with addition of CaCl2 as the last step to initiate clotting. In the first series of experiments, no tPA was added, so data were collected until clot strength (maximum amplitude) was stable. In the second series of experiments which in tPA was added, data were collected until clot lysis time occurred. […] Additional elastic modulus-based parameters were determined and the nomenclature used to describe these phenomena is as follows: Time to maximum rate of thrombus generation (TMRTG): This is the time interval (sec) observed prior to maximum speed of clot growth. Maximum rate of thrombus generation (MRTG): This is the maximum velocity of clot growth observed (dynes/cm^2/sec). Total Thrombus Generation (TTG): This is the total area under the velocity curve during clot growth (dynes/cm^2), representing the amount of clot strength generated during clot growth. Time to maximum rate of lysis (TMRL): This is the time interval (sec) measured from the time of maximum strength to the time when the velocity of clot disintegration is maximal. Maximum Rate of Lysis (MRL): This is the maximum velocity of clot disintegration observed (−dynes/cm^2/sec). Area of Clot Lysis (ACL): This is the total area under the velocity curve during clot disintegration (−dynes/cm^2), representing the amount of clot strength lost during clot disintegration. As this model involves complete fibrinolysis, TTG is equivalent to ACL, so ACL was not presented as it provides no additional information.
Statistical Analyses. Data obtained from pooled normal plasma not exposed to tPA were graphically represented with commercially available software (SigmaPlot 11.0, Systat Software, Inc., San Jose, Calif.), and kinetic modeling of thrombelastographic data performed with the same software. Analyses of the effects of hemodilution and CORM-2 on CLSM variables obtained from pooled normal plasma were conducted using Kruskal-Wallis one way analysis of variance with Student-Newman-Keuls post-hoc test. […] These analyses were conducted with the same commercially available software (SigmaPlot 11.0). A P value of <0.05 was considered significant.

[1] = 20% dilution with VOL + 100 μM CORM-2, no tPA
[2] = 30% dilution with VOL + 100 μM CORM-2, no tPA
[3] = 40% dilution with VOL + 100 μM CORM-2, no tPA
[4] = 50% dilution with VOL + 100 μM CORM-2, no tPA
[5] = undiluted samples, no tPA, 100 μM CORM-2

[C-]#[O+].[C-]#[O+].[C-]#[O+].[C-]#[O+].[C-]#[O+].[C-]#[O+].[Cl][Ru][Cl].[Cl][Ru][Cl] [CORM-2, tricarbonyldichlororuthenium (II) dimer]
MRTG, % of undiluted samples [1]: 93%
TTG, % of undiluted samples [1]: 76%
MRTG, % of undiluted samples [2]: 67%
TTG, % of undiluted samples [2]: 50%
MRTG, % of undiluted samples [3]: 60%
TTG, % of undiluted samples [3]: 45%
MRTG, % of undiluted samples [4]: 22%
TTG, % of undiluted samples [4]: 17%
increase in MRTG with CORM-2 exposure (samples diluted 50% with NS, no tPA, 100 μM CORM-2): 12%
MRTG greater than matched diluted samples not exposed to CORM-2 (samples diluted with NS (except 50%), no tPA, 100 μM CORM-2): 40-50%
increase in MRTG [5]: 75%
increase in TTG [5]: 59%
